The values below come from patent publication US20260224596A1, “Phosphate Prodrugs of Cannabinoids” (Emory University, priority 2023, published 2026).

By solubility is commonly meant the concentration that dissolves in the medium under given conditions. A lower solubility goes with a poorly soluble substance.

In brackets after ≈: the same amount, converted by molar mass. Structures can show the parent of a compound that is named as a salt.

Data set [1] can be described thus: Nephelometry solubility in 1% DMSO. Type of data set: physicochemical. The note with it: PBS pH 7.0-7.3 with 1% DMSO, 25° C.; for solubility at 90 min: Dulbecco's phosphate-buffered saline with 1% DMSO, aqueous buffer, kinetic from dmso stock. The protocol:
Nephelometry experiments were performed using untreated CORNING® COSTAR® 96-well black polystyrene plates with clear flat bottoms. Sample stock solutions and serial dilutions were prepared with DRISOLV® DMSO purchased from MilliporeSigma. […] Nephelometry data was obtained using a NEPHELOSTAR® microplate reader and processed with MARS data analysis software from BMG LabTech.
Tested compounds were dissolved in 100% DMSO to make stock solutions of specified concentrations, ranging from 10 mM minimum up to 50 mM maximum. The sample then underwent serial dilution in a 96-well plate (CORNING® COSTAR®). Well A1 of the plate contained 100% DMSO. […] Using a 12-channel multichannel pipette, 2.5 μL of sample from row A was transferred to each well in row B through row H of the plate. Next, 30 μL of PBS (pH=7.0-7.3) was added to row B through row H, providing each well with 32.5 μL. The plate was then incubated for 30 sec with shaking. Finally. 217.5 μL of PBS buffer was added to row B through row H, and the entire plate was incubated with shaking at 25° C. for 90 min. The final volume of DMSO in actual experiments with PBS buffer was 1% throughout the plate. After 90 min. the 96-well plate was analyzed with a NEPHELOSTAR® instrument and the data was processed with MARS data analysis software.

The nature of data set [2]: Liver microsome stability assay (HLM). The following applies: human liver microsomes, 3 μM test compound, NADPH, 0-30 min, LC-MS/MS; for half-life at 3 μM: pH 7.4, read-out: T½ in HLM. The class given is in vitro ADME. The procedure: As used herein, the “human liver microsomes stability, T1/2” is determined according to the procedure described in Example 9.
Human and mouse liver microsomes were purchased from Xenotech at 20 mg/mL. NADPH (Sigma-Aldrich) 10 mM stocks were prepared in deionized water.
Test compounds and positive controls were dissolved in 100% DMSO to make 10 mM stock solutions. Verapamil (Sigma-Aldrich) and diphenhydramine (Sigma-Aldrich) were used as positive controls for both human liver microsomes (HLM) and mouse liver microsomes (MLM). The 10 mM stock solutions of test and control compounds were further diluted in potassium phosphate buffer (100 mM, pH 7.4) to 500 μM to ensure that the organic solvent content was <0.2%. The liver microsome (HLM or MLM) assay was prepared in a 1.5 mL Eppendorf tube with a final volume of 1100 μL for duplicate runs. Each reaction contained phosphate buffer (928.4 μL), liver microsomes (55 μL), and test compound (6.6 μL of 500 μM), resulting in a final concentration of 3 μM for the test compound. The reaction was initiated with 110 μL of 10 mM NADPH. Aliquots (100 μL) were removed in duplicate at 0, 5, 10, 15, and 30 min and quenched in […] of 100% cold methanol which contained internal standard (ISTD: d5-7-ethoxy coumarin 2 μM). The aliquots were centrifuged at 12,000g for 5 min, and the supernatant was transferred and placed in an LC-MS vial. Each time point was assessed by LC-MS/MS, and the area under the m/z curve (AUC), based on the MRM transition, was integrated w.r.t the ISTD. Positive controls were conducted at a final volume of 550 μL to enable a single run for each time point. Negative controls in the absence of NADPH were performed with the test and control compounds, respectively, at a final volume of 150 μL and measured at the most prolonged time point. Control compounds were processed and analyzed like test compounds. Each time point was run in triplicates on LC-MS/MS followed by in-between blank washes to avoid the carryover and to equilibrate the column. Half-life (T1/2) was calculated using the data obtained from LC-MS/MS and by plotting ln (% remaining of the parent prodrug) versus time and performing linear regression to determine slope. Slope=−k and T1/2=0.693/k for first-order kinetics.
A general note: Liver microsomes are a subcellular fraction often used to study metabolism.

Data set [3] can be described thus: Plasma stability assay. The class given is in vitro ADME, human. The following applies: for half-life at 3 μM: read-out: T½ in human plasma; for Δ^8-THC detected in plasma: release of parent Δ^8-THC in human plasma incubation. The protocol:
As used herein, the “human plasma stability, T1/2” is determined according to the procedure described in Example 10.
Procaine and Procainamide were purchased from Sigma-Aldrich. Human plasma was obtained from BioIVT (Cat. No. […]2N) and 1× Dulbecco's PBS (pH 7.4, Gibco) was obtained from Thermos Fischer. Stock solutions were prepared in 100% DMSO, and suitable dilutions of target analytes were prepared in methanol for method development.
Test compounds were dissolved in DMSO to make a stock solution of 10 mM and then diluted to 500 μM in buffer (or 70% MeOH). Human plasma was thawed at ambient temperature and is aliquoted (994.0 μL) to a 1.5 mL Eppendorf tube in duplicates (A and B) for each compound. Plasma was incubated at 37° C. for 10 minutes in an incubator shaker at 150 rpm; the reaction was initiated by the addition of the test compound (6.0 μL) and vortex mixing. The total reaction volume was 1000 μL where the final organic solvent concentrations were 0.6% MeOH and 0.03% DMSO. The spiked plasma samples were incubated at 37° C. for […]. The reactions were terminated at time points 0, 15, 30, 60, and 120 min by taking a 100 μL aliquot from the test incubation mixture and immediately quenching it in ice-cold mathanol containing internal standard (150 μL with 2 μM ISTD), followed by a quick vortex mixing. In addition, matrix blank was prepared by adding methanol solutions containing ISTD to plasma samples without any of the analytes or control compounds. Also, an additional tube was made to measure compound degradation in PBS buffer. The samples were centrifuged at 15,000 rpm for 25 min at 4° C. The supernatant was transferred to an LC-MS vial for analysis by LC/MS-MS. Each time point was run in duplicates followed by in-between blank washes to avoid the carryover and to equilibrate the column. Half-life (T1/2) was calculated using the data obtained from LC-MS/MS and by plotting ln (% remaining of the parent prodrug) versus time and performing linear regression to determine slope. Slope=−k and T1/2=0.693/k for first-order kinetics. Procaine (poor plasma stability) was used as a positive control at a final concentration of 3 μM. The positive control was run in parallel to test the systems for competency.
An exemplary experimental setup is described below. Conical polypropylene microcentrifuge tubes (1.5 mL) were labelled in duplicate for 0, 15, 30, 60, and 120 min for each compound being tested. • Example: No. of tubes prepared per Test Compound (TC): • Test compound: 994 μL human plasma+6.0 μL TC (Vial A) • 994 μL human plasma+6.0 μL TC (Vial B) • Positive control: 596 μL human plasma+3.6 μL (procaine) • Matrix blank: 500 μL PBS buffer+100 μL human plasma • Negative control: 142 μL PBS buffer+0.9 μL TC1 • Quenching mixture: 150 μL methanol with ISID (2 μM) • Final volume after quenching: 250 μL (100 μL from the incubation mixture and 150 μL from the quenching mixture; ISTD conc. 1.2 μM)

The mark [4] stands for this setting: human plasma, 37° C., time points 0-120 min, LC-MS/MS.

For the compound `CCCCCc1cc(O)c2c(c1)OC(C)(C)[C@@H]1CC=C(C)C[C@@H]21` (relative stereo) [Δ^8-THC, (−)trans-Δ^8-THC, reference compound], the “Solubility in 1% DMSO” value in data set [1] (90 min) turned out to be 15.93 ± 0.8 µM (≈ 5.01 µg/mL). For the same compound, in data set [2], the “T½ in HLM” value is given as 5.51 min. The “T½ in human plasma” value in data set [3] (setting [4]) came out at 1440 ± 360 min.

As to `CCCCCc1cc(OC(=O)OCCCOP(=O)(O)O)c2c(c1)OC(C)(C)[C@@H]1CC=C(C)C[C@@H]21` [Compound 11a, 3-(phosphonooxy)propyl ((6aR,10aR)-6,6,9-trimethyl-3-pentyl-6a,7,10,10a-tetrahydro-6H-benzo[c]chromen-1-yl) carbonate di-ammonium salt], in data set [2], the half-life at 3 μM was determined as 18.8 min.

`CCCCCc1cc(OC(=O)OCCCCOP(=O)(O)O)c2c(c1)OC(C)(C)[C@@H]1CC=C(C)C[C@@H]21.N.N` [Compound 11b, 4-(phosphonooxy)butyl ((6aR,10aR)-6,6,9-trimethyl-3-pentyl-6a,7,10,10a-tetrahydro-6H-benzo[c]chromen-1-yl) carbonate di-ammonium salt] showed a solubility at 90 min in data set [1] greater than 500 µM. The results for the half-life at 3 μM in data set [2] and in data set [3] (setting [4]) were 17.2 min and greater than 120 min, respectively. Further, the “Δ^8-THC detected in plasma” value in data set [3] is recorded as “Yes”.

For the compound `CCCCCc1cc(OC(=O)CCCOP(=O)(O)O)c2c(c1)OC(C)(C)[C@@H]1CC=C(C)C[C@@H]21.N.N` [Compound 16a, (6aR,10aR)-6,6,9-trimethyl-3-pentyl-6a,7,10,10a-tetrahydro-6H-benzo[c]chromen-1-yl 4-(phosphonooxy)butanoate di-ammonium salt], the solubility at 90 min in data set [1] was greater than 500 µM. For the same compound, the half-life at 3 μM is 51.3 min in data set [2] and greater than 120 min in data set [3] (setting [4]). In addition, in data set [3], the “Δ^8-THC detected in plasma” value is “Yes”.

The compound `CCCCCc1cc(OC(=O)CCCCOP(=O)(O)O)c2c(c1)OC(C)(C)[C@@H]1CC=C(C)C[C@@H]21.N.N` [Compound 16b, (6aR,10aR)-6,6,9-trimethyl-3-pentyl-6a,7,10,10a-tetrahydro-6H-benzo[c]chromen-1-yl 5-(phosphonooxy)pentanoate di-ammonium salt] gave a solubility at 90 min in data set [1] greater than 500 µM. Also, the half-life at 3 μM in data set [2] turned out to be 40.1 min.

In turn, `CCCCCc1cc(OC(=O)NCCOP(=O)(O)O)c2c(c1)OC(C)(C)[C@@H]1CC=C(C)C[C@@H]21.N.N` [Compound 21a, (6aR,10aR)-6,6,9-trimethyl-3-pentyl-6a,7,10,10a-tetrahydro-6H-benzo[c]chromen-1-yl (2-(phosphonooxy)ethyl)carbamate di-ammonium salt] registered a solubility at 90 min in data set [1] greater than 500 µM. Also, in data set [2], the half-life at 3 μM was 5.6 min.

In the case of `CCCCCc1cc(OC(=O)NCCCOP(=O)(O)O)c2c(c1)OC(C)(C)[C@@H]1CC=C(C)C[C@@H]21.N.N` [Compound 21b, (6aR,10aR)-6,6,9-trimethyl-3-pentyl-6a,7,10,10a-tetrahydro-6H-benzo[c]chromen-1-yl (3-(phosphonooxy)propyl)carbamate di-ammonium salt], the solubility at 90 min in data set [1] is greater than 500 µM. The half-life at 3 μM is 12.5 min in data set [2] and greater than 120 min in data set [3] (setting [4]). Besides, the “Δ^8-THC detected in plasma” value in data set [3] is given as “Yes”.
